From patent US6852337B2, “Carvedilol-galenics” (Roche Diagnostics GmbH, priority 1998, dated 2005)

Experiment: In-vitro dissolution rate, USP XXII paddle method, aqueous buffer pH 4.5
Format: physicochemical
From the text: In the case of drugs which cannot develop their action in the gastrointestinal zone itself, release from the drug form in the gastrointestinal tract and the subsequent resorption are the necessary condition for a therapeutic effect. Problems arise in this connection with those active substances which, because of their poor solubility or their low dissolution speed, attain so low a concentration in the gastrointestinal tract in the aqueous medium or because of obstructed release from the system of the other adjuvants, that the dissolution of the active substance is the step which determines the rate in connection with the resorption. […] The solubility and release rate are determined by standard methods, e.g. in accordance with the paddle method of USP XXII.
The in-vitro dissolution rates in this and the following examples were determined in accordance with USP XXII, paddle method in an aqueous buffer pH 4.5

SMILES	In-vitro dissolution rate after 10 minutes	In-vitro dissolution rate after 20 minutes	In-vitro dissolution rate after 30 minutes	In-vitro dissolution rate after 60 minutes
OC(COc1cccc2[nH]ccc12)CN1CCC(COc2ccccc2)CC1 (centres unmarked) [Active substance A, 4-[2-hydroxy-3-[4-(phenoxymethyl)piperidino]-propoxy]-indole]	31%	43%	50%	58%
COc1ccccc1OCCNCC(O)COc1cccc2[nH]c3ccccc3c12 (centres unmarked) [Active substance B, carvedilol]	36%	46%	49%	56%
